Biological target: RIPK1 kinase (Homo sapiens (Human), UniProt Q13546)
Experiment: RIPK1 kinase inhibitory assay (ADP-Glo)
Type: biochemical
Conditions: 10 μM compound; read-out: Inhibition rate of RIPK1 at 10 μM (%)
Method: Materials and Instruments: ADP-Glo kinase kit (purchased from Promega), RIPK1 GST-Th-Tag (purchased from Bps Bioscience), MBP substrate (purchased from Millipore), nunc 384-well plate, ATP fluorescence analyzer Paradigm detection platform (purchased from Beckman coulter)
The compounds were diluted in DMSO and configured into a solution with a final concentration of 10 mM; Dilute RIP1 kinase from 140 ng/μL to 20 ng/μL for use. Dilute 10 mM of ATP to 100 μM for later use; Dilute 5 mg/mL of MBP to 1 mg/mL for later use. Appropriate embodiments were added into the well of the 384-well plate, 10 μl […] ATP was evenly mixed with 1 μl 1 mg/mL MB P, the mixed solution was added to the well, and 2 μL […] RIP1 kinase was added to the hole, and then incubated at room temperature for 1 h. Subsequently, 5 μL ADP-Glo reagent was added to each well and incubated at room temperature for 40 min. Then, 10 μL ADP-Glo detection reagent was added to each well and incubated at room temperature for 30 min. Finally, the RLU value (relative light unit) of each well was measured by ATP fluorometer, and each sample was repeated twice. Inhibition rate=(RLU value of blank group−RLU value of drug administration group)/RLU value of blank group×100%.

Sequence of RIPK1 kinase (Q13546 whole entry): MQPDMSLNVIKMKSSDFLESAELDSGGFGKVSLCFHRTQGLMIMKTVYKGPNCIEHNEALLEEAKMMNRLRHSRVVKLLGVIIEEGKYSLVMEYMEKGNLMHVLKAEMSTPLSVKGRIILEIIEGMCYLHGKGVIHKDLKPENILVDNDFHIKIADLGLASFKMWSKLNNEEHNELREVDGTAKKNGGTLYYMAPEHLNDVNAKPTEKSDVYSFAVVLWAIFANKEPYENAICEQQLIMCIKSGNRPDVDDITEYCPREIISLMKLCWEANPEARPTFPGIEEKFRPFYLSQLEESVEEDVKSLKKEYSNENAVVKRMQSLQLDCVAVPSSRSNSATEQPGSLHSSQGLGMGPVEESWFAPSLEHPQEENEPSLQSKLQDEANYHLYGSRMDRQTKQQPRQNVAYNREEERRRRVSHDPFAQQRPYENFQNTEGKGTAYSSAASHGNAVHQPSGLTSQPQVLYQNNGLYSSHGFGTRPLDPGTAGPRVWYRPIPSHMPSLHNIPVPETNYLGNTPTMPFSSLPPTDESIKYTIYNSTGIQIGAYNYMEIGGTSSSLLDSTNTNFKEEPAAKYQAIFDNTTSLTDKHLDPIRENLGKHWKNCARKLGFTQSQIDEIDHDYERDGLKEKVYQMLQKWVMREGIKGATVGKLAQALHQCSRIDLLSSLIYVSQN

Row | Structure (SMILES) | inhibition at 10 µM
1 | CN1C(=O)N(Cc2ccccc2)C(=O)C12CCN(C(=O)c1ccccc1)CC2 [Compound 2, 8-benzoyl-3-benzyl-1-methyl-1,3,8-triazaspiro [4.5] decane-2,4-dione] | 8%
2 | CN1C(=O)N(Cc2cccc(Cl)c2)C(=O)C12CCN(C(=O)c1ccccc1)CC2 [Compound 3, 8-benzoyl-3-(3-chlorobenzyl)-1-methyl-1,3,8-triazaspiro[4.5]decane-2,4-dione] | 11%
3 | CN1C(=O)N(Cc2ccc(C(F)(F)F)cc2)C(=O)C12CCN(C(=O)c1ccccc1)CC2 [Compound 4, 8-benzoyl-1-methyl-3-(4-(trifluoromethyl)benzyl)-1,3,8-triazaspiro decane-2,4-dione] | 16%
4 | CN1C(=O)N(Cc2cccnc2)C(=O)C12CCN(C(=O)c1ccccc1)CC2 [Compound 5, 8-benzoyl-1-methyl-3-(pyridin-3-ylmethyl)-1,3,8-triazaspiro [4.5]decane-2,4-dione] | 20%
5 | CN1C(=O)N(Cc2ccccn2)C(=O)C12CCN(C(=O)c1ccccc1)CC2 [Compound 6, 8-benzoyl-1-methyl-3-(pyridin-2-ylmethyl)-1,3,8-triazaspiro [4.5]decane-2,4-dione] | 4%
6 | CN1C(=O)N(CC2CCCCC2)C(=O)C12CCN(C(=O)c1ccccc1)CC2 [Compound 7, 8-benzoyl-3-(cyclohexylmethyl)-1-methyl-1,3,8-triazaspiro [4.5]decane-2,4-dione] | 34%
7 | CN1C(=O)N(CC2CCCC2)C(=O)C12CCN(C(=O)c1ccccc1)CC2 [Compound 8, 8-benzoyl-3-(cyclopentylmethyl)-1-methyl-1,3,8-triazaspiro [4.5]decane-2,4-dione] | 22%
8 | O=C(c1ccccc1)N1CCC2(CC1)CCN(Cc1ccccc1)C2=O [Compound 9, 8-benzoyl-2-benzyl-2,8-diazaspiro[4.5]decan-1-one] | > 50%
9 | O=C(c1ccccc1)N1CCC2(CC1)CCN(Cc1cccc(Cl)c1)C2=O [Compound 10, 8-benzoyl-2-(3-chlorobenzyl)-2,8-diazaspiro[4.5]decan-1-one] | > 50%
10 | O=C(c1ccccc1)N1CCC2(CC1)CCN(CC1CCCCC1)C2=O [Compound 11, 8-benzoyl-2-(cyclohexylmethyl)-2,8-diazaspiro[4.5]decan-1-one] | > 50%
11 | O=C(c1ccccc1)N1CCC2(CC1)CCN(CC1CCCC1)C2=O [Compound 12, 8-benzoyl-2-(cyclopentylmethyl)-2,8-diazaspiro[4.5]decan-1-one] | > 50%
12 | O=C(c1ccccc1)N1CCC2(CC1)CCN(Cc1cccnc1)C2=O [Compound 13, 8-benzoyl-2-(pyridin-3-ylmethyl)-2,8-diazaspiro[4.5]decan-1-one] | > 50%
13 | O=C(c1ccccc1)N1CCC2(CC1)CCN(Cc1ccccn1)C2=O [Compound 14, 8-benzoyl-2-(pyridin-2-ylmethyl)-2,8-diazaspiro[4.5]decan-1-one] | > 50%
14 | O=C(c1ccccc1)N1CCC2(CC1)CCN(Cc1ccc(C(F)(F)F)cc1)C2=O [Compound 15, 8-benzoyl-2-(4-(trifluoromethyl)benzyl)-2,8-diazaspiro[4.5]decan-1-one] | > 50%
15 | O=C(c1ccncc1)N1CCC2(CC1)CCN(Cc1ccccc1)C2=O [Compound 16, 2-benzyl-8-isonicotinoyl-2,8-diazaspiro[4.5]decan-1-one] | > 50%
16 | O=C(c1cccnc1)N1CCC2(CC1)CCN(Cc1ccccc1)C2=O [Compound 17, 2-benzyl-8-nicotinoyl-2,8-diazaspiro[4.5]decan-1-one] | 45%
17 | O=C(c1cnco1)N1CCC2(CC1)CCN(Cc1ccccc1)C2=O [Compound 18, 2-benzyl-8-(oxazole-5-carbonyl)-2,8-diazaspiro[4.5]decan-1-one] | > 50%
18 | O=C1N(Cc2ccccc2)CCC12CCN(Cc1ccccc1)CC2 [Compound 19, 2,8-dibenzyl-2,8-diazaspiro[4.5]decan-1-one] | 16%
19 | O=C1N(Cc2ccccc2)CCC12CCN(S(=O)(=O)c1ccccc1)CC2 [Compound 20, 2-benzyl-8-(phenylsulfonyl)-2,8-diazaspiro [4.5]decan-1-one] | 21%
20 | CN1CCC2(CC1)CCN(Cc1ccccc1)C2=O [Compound 21, 2-benzyl-8-methyl-2,8-diazaspiro[4.5]decan-1-one] | 5%
21 | CC(C)N1CCC2(CCN(Cc3ccccc3)C2=O)CC1 [Compound 22, 2-benzyl-8-isopropyl-2,8-diazaspiro[4.5]decan-1-one] | 8%

Row | Structure (SMILES) | inhibition at 10 µM
22 | O=C(c1c[nH]c2ccccc12)N1CCC2(CC1)CCN(Cc1ccccc1)C2=O [Compound 23, 2-benzyl-8-(1H-indole-3-carbonyl)-2,8-diazaspiro[4.5]decan-1-one] | > 50%
23 | O=C(c1ccc2[nH]ccc2c1)N1CCC2(CC1)CCN(Cc1ccccc1)C2=O [Compound 24, 2-benzyl-8-(1H-indole-5-carbonyl)-2,8-diazaspiro[4.5]decan-1-one] | > 50%
24 | O=C(c1ccc2cc[nH]c2c1)N1CCC2(CC1)CCN(Cc1ccccc1)C2=O [Compound 25, 2-benzyl-8-(1H-indole-6-carbonyl)-2,8-diazaspiro[4.5]decan-1-one] | > 50%
25 | Cn1cnc2ccc(C(=O)N3CCC4(CC3)CCN(Cc3ccccc3)C4=O)cc21 [Compound 26, 2-benzyl-8-(1-methyl-1H-benzo[d]imidazole-6-carbonyl)-2,8-diazaspiro[4.5]decan-1-one] | 14%
26 | Cn1cc(C(=O)N2CCC3(CC2)CCN(Cc2ccccc2)C3=O)c2ccccc21 [Compound 27, 2-benzyl-8-(1-methyl-1H-indole-3-carbonyl)-2,8-diazaspiro[4.5]decan-1-one] | 46%
27 | Cn1ccc2cc(C(=O)N3CCC4(CC3)CCN(Cc3ccccc3)C4=O)ccc21 [Compound 28, 2-benzyl-8-(1-methyl-1H-indole-5-carbonyl)-2,8-diazaspiro[4.5]decan-1-one] | 3%
28 | Cn1ccc2ccc(C(=O)N3CCC4(CC3)CCN(Cc3ccccc3)C4=O)cc21 [Compound 29, 2-benzyl-8-(1-methyl-1H-indole-6-carbonyl)-2,8-diazaspiro[4.5]decan-1-one] | > 50%
29 | O=C(c1cnco1)N1CCC2(CC1)CCN(Cc1ccccc1F)C2=O [Compound 30, 2-(2-fluorobenzyl)-8-(oxazole-5-carbonyl)-2,8-diazaspiro[4.5]decan-1-one] | > 50%
30 | O=C(c1ccccc1)N1CCC2(CC1)CCN(Cc1cccc(F)c1)C2=O [Compound 32, 8-benzoyl-2-(3-fluorobenzyl)-2,8-diazaspiro[4.5]decan-1-one] | > 50%
31 | O=C(c1ccccc1)N1CCC2(CC1)CCN(Cc1ccc(F)cc1)C2=O [Compound 33, 8-benzoyl-2-(4-fluorobenzyl)-2,8-diazaspiro[4.5]decan-1-one] | > 50%
32 | O=C(c1ccccc1)N1CCC2(CC1)CCN(Cc1cc(F)cc(F)c1)C2=O [Compound 35, 8-benzoyl-2-(3,5-difluorobenzyl)-2,8-diazaspiro[4.5]decan-1-one] | > 50%
33 | O=C1N(Cc2ccccc2)CCC12CCN(c1ncccn1)CC2 [Compound 36, 2-benzyl-8-(pyrimidin-2-yl)-2,8-diazaspiro[4.5]decan-1-one] | > 50%
34 | O=C(c1ccccc1)N1CCC2(CC1)CCN(Cc1c(F)cccc1F)C2=O [Compound 37, 8-benzoyl-2-(2,6-difluorobenzyl)-2,8-diazaspiro[4.5]decan-1-one] | > 50%
35 | O=C(c1ccccc1)N1CCC2(CC1)CCN(Cc1ccc(F)c(F)c1F)C2=O [Compound 38, 8-benzoyl-2-(2,3,4-trifluorobenzyl)-2,8-diazaspiro[4.5]decan-1-one] | > 50%
36 | O=C(c1ccccc1)N1CCC2(CC1)CCN(Cc1ccc(Cl)cc1F)C2=O [Compound 39, 8-benzoyl-2-(4-chloro-2-fluorobenzyl)-2,8-diazaspiro[4.5]decan-1-one] | > 50%
37 | O=C(c1ccccc1)N1CCC2(CC1)CCN(Cc1cccc(F)c1F)C2=O [Compound 40, 8-benzoyl-2-(2,3-difluorobenzyl)-2,8-diazaspiro[4.5]decan-1-one] | > 50%
38 | O=C(c1ccccc1)N1CCC2(CC1)CCN(Cc1cc(F)c(F)cc1F)C2=O [Compound 41, 8-benzoyl-2-(2,4,5-trifluorobenzyl)-2,8-diazaspiro[4.5]decan-1-one] | > 50%
39 | O=C(c1ccccc1)N1CCC2(CC1)CCN(Cc1ccc(F)cc1F)C2=O [Compound 43, 8-benzoyl-2-(2,4-difluorobenzyl)-2,8-diazaspiro[4.5]decan-1-one] | > 50%
40 | O=C(c1ccccc1)N1CCC2(CC1)CCN(Cc1c(F)cccc1Cl)C2=O [Compound 45, 8-benzoyl-2-(2-chloro-6-fluorobenzyl)-2,8-diazaspiro[4.5]decan-1-one] | 43%
41 | O=C(c1ccccc1)N1CCC2(CC1)CCN(Cc1cc(Cl)ccc1F)C2=O [Compound 47, 8-benzoyl-2-(5-chloro-2-fluorobenzyl)-2,8-diazaspiro[4.5]decan-1-one] | > 50%
42 | N#Cc1ccc(CN2CCC3(CCN(C(=O)c4ccccc4)CC3)C2=O)c(F)c1 [Compound 48, 4-((8-benzoyl-1-oxo-2,8-diazaspiro[4.5]decan-2-yl)methyl)-3-fluorobenzonitrile] | 8%

From US20250129073A1, “INHIBITOR OF RECEPTOR-INTERACTING PROTEIN KINASE 1, AND PREPARATION METHOD AND USE THEREFOR” (CHINA PHARMACEUTICAL UNIVERSITY, priority 2021, published 2025)
